PubChem BioAssay AID328 (DTP/NCI, 2004)
Several values for one entry are separate records, joined by “and”; a condition that tells them apart may be missing. Identical values can stand only once. Toxic doses and inconclusive results are not listed.

Test system: BDF1 mice, P388 leukemia ip, median survival T/C
Test: NCI In Vivo Anticancer Drug Screen. Data for tumor model P388 Leukemia (intraperitoneal) in B6D2F1 (BDF1) mice
Conditions: endpoint: median survival time, higher = longer survival
How it was run: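 Vehicle-dosed animals serve as the reference; survival of compound-dosed, tumour-implanted mice is divided by it.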

[1] = dose: 50.0 mg/kg/injection, schedule: Q01DX009 (ip), vehicle: Klucel (hydroxypropylcellulose) (HPC)
[2] = dose: 100.0 mg/kg/injection, schedule: Q01DX009 (ip), vehicle: Klucel (hydroxypropylcellulose) (HPC)
[3] = dose: 100.0 mg/kg/injection, schedule: Q01DX009 (ip), vehicle: water
[4] = dose: 25.0 mg/kg/injection, schedule: Q01DX009 (ip), vehicle: saline
[5] = dose: 50.0 mg/kg/injection, schedule: Q01DX009 (ip), vehicle: saline
[6] = dose: 100.0 mg/kg/injection, schedule: Q04DX003 (ip), vehicle: saline with Tween-80
[7] = dose: 200.0 mg/kg/injection, schedule: Q01DX009 (ip), vehicle: Klucel (hydroxypropylcellulose) (HPC)
[8] = dose: 200.0 mg/kg/injection, schedule: Q04DX003 (ip), vehicle: saline with Tween-80
[9] = dose: 400.0 mg/kg/injection, schedule: Q01DX009 (ip), vehicle: Klucel (hydroxypropylcellulose) (HPC)
[10] = dose: 400.0 mg/kg/injection, schedule: Q04DX003 (ip), vehicle: saline with Tween-80
[11] = dose: 100.0 mg/kg/injection, schedule: Q01DX009 (ip), vehicle: saline with Tween-80
[12] = dose: 200.0 mg/kg/injection, schedule: Q01DX009 (ip), vehicle: saline with Tween-80
[13] = dose: 400.0 mg/kg/injection, schedule: Q01DX009 (ip), vehicle: saline with Tween-80
[14] = dose: 50.0 mg/kg/injection, schedule: Q04DX003 (ip), vehicle: saline with Tween-80
[15] = dose: 50.0 mg/kg/injection, schedule: Q01DX009 (ip), vehicle: saline with Tween-80
[16] = dose: 100.0 mg/kg/injection, schedule: Q04DX003 (ip), vehicle: saline
[17] = dose: 200.0 mg/kg/injection, schedule: Q04DX003 (ip), vehicle: saline

COc1cc2c(ccc3c4cc(OC)c(OC)cc4c[n+](C)c23)cc1O
T/C (dose: 12.5 mg/kg/injection, schedule: Q01DX009 (ip), vehicle: Klucel (hydroxypropylcellulose) (HPC)): 165 % of control | T/C (dose: 25.0 mg/kg/injection, schedule: Q01DX009 (ip), vehicle: Klucel (hydroxypropylcellulose) (HPC)): 173 % of control | T/C (dose: 25.0 mg/kg/injection, schedule: Q01DX010 (ip), vehicle: saline): 190 % of control | T/C (dose: 40.0 mg/kg/injection, schedule: Q01DX009 (ip), vehicle: saline): 190 % of control | T/C (dose: 40.0 mg/kg/injection, schedule: Q04DX003 (ip), vehicle: saline): 190 % of control | T/C [1]: 219 % of control | T/C (dose: 50.0 mg/kg/injection, schedule: Q01DX010 (ip), vehicle: saline): 210 % of control | T/C (dose: 80.0 mg/kg/injection, schedule: Q01DX009 (ip), vehicle: saline): 210 % of control | T/C (dose: 80.0 mg/kg/injection, schedule: Q04DX003 (ip), vehicle: saline): 180 % of control | T/C [2]: 230 % of control | T/C (dose: 100.0 mg/kg/injection, schedule: Q01DX010 (ip), vehicle: saline): 265 % of control | T/C (dose: 160.0 mg/kg/injection, schedule: Q01DX009 (ip), vehicle: saline): 270 % of control | T/C (dose: 160.0 mg/kg/injection, schedule: Q04DX003 (ip), vehicle: saline): 215 % of control | T/C (dose: 320.0 mg/kg/injection, schedule: Q01DX009 (ip), vehicle: saline): 205 % of control | T/C (dose: 320.0 mg/kg/injection, schedule: Q04DX003 (ip), vehicle: saline): 270 % of control

O/C(=C\C(=S)S)c1ccc(Cl)cc1
T/C (dose: 0.39 mg/kg/injection, schedule: Q04DX003 (ip), vehicle: saline with Tween-80): 100 % of control | T/C (dose: 0.78 mg/kg/injection, schedule: Q01DX009 (ip), vehicle: saline with Tween-80): 97 % of control | T/C (dose: 0.78 mg/kg/injection, schedule: Q04DX003 (ip), vehicle: saline with Tween-80): 92 % of control and 106 % of control (2×) | T/C (dose: 1.56 mg/kg/injection, schedule: Q01DX009 (ip), vehicle: saline with Tween-80): 118 % of control | T/C (dose: 1.56 mg/kg/injection, schedule: Q04DX003 (ip), vehicle: saline with Tween-80): 97 % of control and 113 % of control | T/C (dose: 3.12 mg/kg/injection, schedule: Q01DX009 (ip), vehicle: saline with Tween-80): 106 % of control | T/C (dose: 3.12 mg/kg/injection, schedule: Q04DX003 (ip), vehicle: saline with Tween-80): 95 % of control and 100 % of control and 120 % of control | T/C (dose: 6.25 mg/kg/injection, schedule: Q01DX009 (ip), vehicle: saline with Tween-80): 112 % of control | T/C (dose: 6.25 mg/kg/injection, schedule: Q04DX003 (ip), vehicle: saline with Tween-80): 88 % of control and 103 % of control | T/C (dose: 12.5 mg/kg/injection, schedule: Q01DX009 (ip), vehicle: saline with Tween-80): 86 % of control

O=C(Cn1ccc(=O)[nH]c1=O)N1CCOCC1
T/C [3]: 104 % of control | T/C (dose: 200.0 mg/kg/injection, schedule: Q01DX009 (ip), vehicle: water): 104 % of control | T/C (dose: 400.0 mg/kg/injection, schedule: Q01DX009 (ip), vehicle: water): 95 % of control

O=C=Nc1ccc(Cl)c(Cl)c1 (tested in a mixture with another compound)
T/C (dose: 50.0 mg/kg/injection, schedule: Q01DX011 (ip), vehicle: Klucel (hydroxypropylcellulose) (HPC)): 107 % of control | T/C (dose: 100.0 mg/kg/injection, schedule: Q01DX011 (ip), vehicle: Klucel (hydroxypropylcellulose) (HPC)): 109 % of control | T/C (dose: 200.0 mg/kg/injection, schedule: Q01DX011 (ip), vehicle: Klucel (hydroxypropylcellulose) (HPC)): 100 % of control | T/C (dose: 400.0 mg/kg/injection, schedule: Q01DX011 (ip), vehicle: Klucel (hydroxypropylcellulose) (HPC)): 102 % of control

C/C(=N/N(C)C)c1ccc(Br)cc1
T/C (dose: 12.5 mg/kg/injection, schedule: Q01DX009 (ip), vehicle: saline): 100 % of control | T/C [4]: 100 % of control | T/C [5]: 112 % of control | T/C (dose: 110.0 mg/kg/injection, schedule: Q04DX003 (ip), vehicle: saline): 109 % of control | T/C (dose: 170.0 mg/kg/injection, schedule: Q04DX003 (ip), vehicle: saline): 95 % of control | T/C (dose: 255.0 mg/kg/injection, schedule: Q04DX003 (ip), vehicle: saline): 95 % of control

O=C1c2ccccc2C(=O)N1CC#CCN1C(=O)c2ccccc2C1=O
T/C (dose: 75.0 mg/kg/injection, schedule: Q01DX009 (ip), vehicle: saline with Tween-80): 115 % of control | T/C (dose: 150.0 mg/kg/injection, schedule: Q01DX009 (ip), vehicle: saline with Tween-80): 90 % of control | T/C (dose: 300.0 mg/kg/injection, schedule: Q01DX009 (ip), vehicle: saline with Tween-80): 97 % of control

O=C(CC(NC(=O)OCc1ccccc1)C(=O)O)OCc1ccccc1 (configuration not stated)
T/C [1]: 122 % of control | T/C [2]: 111 % of control | T/C [6]: 104 % of control | T/C [7]: 111 % of control | T/C [8]: 100 % of control | T/C (dose: 264.0 mg/kg/injection, schedule: Q04DX003 (ip), vehicle: saline with Tween-80): 100 % of control | T/C [9]: 94 % of control | T/C [10]: 100 % of control and 109 % of control

Cc1cc(C)nc(NNc2nc(C)cc(C)n2)n1
T/C [11]: 92 % of control | T/C [6]: 91 % of control | T/C [12]: 103 % of control | T/C [8]: 95 % of control | T/C [13]: 89 % of control | T/C [10]: 95 % of control

CCOC(=O)C(=O)c1c[nH]c2ccccc12
T/C [14]: 90 % of control | T/C [2]: 109 % of control | T/C [6]: 104 % of control | T/C [7]: 90 % of control | T/C [8]: 100 % of control | T/C [9]: 109 % of control

O=C(O)/C=C/c1ccc(-c2cc(C(F)(F)F)cc(C(F)(F)F)c2)o1
T/C [15]: 108 % of control | T/C [11]: 90 % of control | T/C [12]: 106 % of control

COc1ccc(C(=O)C/C(=N\N(C(=O)c2ccc(OC)cc2)c2ccccc2)c2ccc(OC)cc2)cc1
T/C [15]: 104 % of control | T/C [11]: 100 % of control | T/C [12]: 100 % of control

CCN(CC)CCCC(C)NC(=O)c1cc(=O)[nH]c(=O)[nH]1 (configuration not stated)
T/C (dose: 25.0 mg/kg/injection, schedule: Q01DX009 (ip), vehicle: water): 103 % of control | T/C (dose: 50.0 mg/kg/injection, schedule: Q01DX009 (ip), vehicle: water): 106 % of control | T/C [3]: 100 % of control | T/C (dose: 100.0 mg/kg/injection, schedule: Q04DX003 (ip), vehicle: water): 100 % of control | T/C (dose: 200.0 mg/kg/injection, schedule: Q04DX003 (ip), vehicle: water): 98 % of control

COC(=O)CCC(C)C1CCC2C3CCC4CC(SC(=N)N)CCC4(C)C3CC(O)C12C (configuration not stated)
T/C [15]: 91 % of control | T/C [11]: 89 % of control | T/C [12]: 89 % of control

COC(OC)C12CC(OC(=O)N1)C(C)CO2 (configuration not stated)
T/C (dose: 50.0 mg/kg/injection, schedule: Q04DX003 (ip), vehicle: saline): 98 % of control | T/C [16]: 106 % of control | T/C [17]: 96 % of control

COc1ccc(/C(C)=C\C(=O)O)cc1
T/C [6]: 100 % of control | T/C [8]: 100 % of control | T/C [10]: 95 % of control

CCCC(=O)C(CC)C(O)(C(F)(F)F)C(F)(F)F (configuration not stated)
T/C [14]: 100 % of control | T/C [6]: 104 % of control | T/C [8]: 118 % of control

CCCCCC[C@@H](O)[C@@H]1C2=C(C[C@H]([C@H](O)[C@@H]3CC=CC(=O)O3)CC3=C(C(=O)OC3=O)[C@@H]1O)C(=O)OC2=O
T/C (dose: 0.12 mg/kg/injection, schedule: Q01DX009 (ip), vehicle: saline): 107 % of control | T/C (dose: 0.25 mg/kg/injection, schedule: Q01DX009 (ip), vehicle: saline): 109 % of control | T/C (dose: 0.5 mg/kg/injection, schedule: Q01DX009 (ip), vehicle: saline): 107 % of control | T/C (dose: 1.0 mg/kg/injection, schedule: Q01DX009 (ip), vehicle: saline): 119 % of control

C/C(=N/N(C)C)c1ccccn1
T/C [11]: 103 % of control | T/C [6]: 104 % of control | T/C [12]: 100 % of control | T/C [8]: 100 % of control | T/C [10]: 100 % of control

O=C(O)CCC(=O)Nc1ccccc1C(F)(F)F
T/C [11]: 100 % of control | T/C [12]: 109 % of control | T/C [13]: 90 % of control

NN1CCCC1
T/C [4]: 100 % of control | T/C [5]: 100 % of control | T/C (dose: 100.0 mg/kg/injection, schedule: Q01DX009 (ip), vehicle: saline): 86 % of control and 90 % of control and 100 % of control | T/C [16]: 104 % of control | T/C (dose: 200.0 mg/kg/injection, schedule: Q01DX009 (ip), vehicle: saline): 100 % of control | T/C [17]: 113 % of control
